Data from US11590199B2, “Use of an ABC transporter peptide inhibitor” (HUNAN UNIVERSITY OF SCIENCE AND ENGINEERING, priority 2021, dated 2023).

What was measured:
[1] = test system: KB-3-1 parental cell line; experiment: MDR reversal study (MTT), parental KB-3-1; type: cell-based; conditions: chemotherapeutic drug alone
[2] = test system: HEK293/pcDNA3.1 parental cell line; experiment: MDR reversal study (MTT), parental HEK293/pcDNA3.1; type: cell-based; conditions: for RF / IC50: chemotherapeutic drug alone
parental cells (KB-3-1) = experiment: cells; conditions: Homo sapiens
[3] = test system: drug-induced ABCC1-overexpressing cancer cell line KB-CV60; experiment: MDR reversal study (MTT), drug-induced ABCC1-overexpressing cells; type: cell-based; conditions: chemotherapeutic drug alone, Table 4
[4] = test system: transfected ABCC1-overexpressing cell line HEK293/ABCC1; experiment: MDR reversal study (MTT), transfected ABCC1-overexpressing cells; type: cell-based; conditions: chemotherapeutic drug alone
[5] = test system: drug-induced ABCB1-overexpressing cancer cell line KB-C2; experiment: MDR reversal study (MTT), drug-induced ABCB1-overexpressing cells; conditions: chemotherapeutic drug alone

SMILES	RF ([1]; Table 2)	RF ([2]; Table 3)	RF ([1]; Table 4)	RF [3]	RF [4]	RF ([2]; Table 5)	also measured
COc1cccc2c1C(=O)c1c(O)c3c(c(O)c1C2=O)C[C@@](O)(C(=O)CO)C[C@@H]3O[C@H]1C[C@H](N)[C@H](O)[C@H](C)O1 [Doxorubicin]	1.00						
CC(=O)O[C@H]1C(=O)[C@@]2(C)[C@H]([C@H](OC(=O)c3ccccc3)[C@]3(O)C[C@H](OC(=O)[C@H](O)[C@@H](NC(=O)c4ccccc4)c4ccccc4)C(C)=C1C3(C)C)[C@]1(OC(C)=O)CO[C@@H]1C[C@@H]2O [Paclitaxel]	1.00	1.00					
CC[C@]1(O)C[C@H]2CN(CCc3c([nH]c4ccccc34)[C@@](C(=O)OC)(c3cc4c(cc3OC)N(C=O)[C@H]3[C@@](O)(C(=O)OC)[C@H](OC(C)=O)[C@]5(CC)C=CCN6CC[C@]43[C@@H]65)C2)C1 [Vincristine]			1.00	169.05	19.79	1.00	IC50 (parental cells (KB-3-1)): 95 nM; IC50 ([1]; Homo sapiens, 72 h, Table 4): 95 nM; IC50 ([2]; Homo sapiens, Table 5): 137 nM
CN(C)C(=O)CCSC(SCCC(=O)O)c1cccc(/C=C/c2ccc3ccc(Cl)cc3n2)c1 (stereo not shown) [MK571]							RF of cisplatin ([2]; cisplatin + MK571 (5 μM)): 0.99; RF of vincristine ([2]; vincristine + MK571 (5 μM)): 1.02
N.N.[Cl][Pt][Cl] [Cisplatin]	1.00	1.00	1.00	1.25	1.01	1.00	RF [5]: ± 0.428 (1.13); IC50 ([1]; Table 2): 1790 ± 476 nM; IC50 ([1]; Table 4): 1790 nM; IC50 [3]: 2230 nM; IC50 [4]: 2240 nM; IC50 ([2]; Table 3): 2210 ± 541 nM; IC50 ([2]; Table 5): 2210 nM
